Measured values: US20250051347A1, “BIFUNCTIONAL CHIMERIC HETEROCYCLIC COMPOUND AND USE THEREOF AS ANDROGEN RECEPTOR DEGRADER” (Hinova Pharmaceuticals, Inc., priority 2021, published 2025)
Where two headings read alike, the source gives them in different places.

Legend:
[1] = Pharmacokinetics in mice (plasma exposure after oral administration); type: in vivo; settings: mouse, ICR mice, oral (i.g.) 3 mg/kg, read-out: After oral administration of 3 mg/kg, mouse plasma exposure AUCinf
Protocol: • LC-20AD high performance liquid chromatography (SHIMADZU, Japan) • API4000 triple quadrupole mass spectrometer (Applied Biosystem, USA) • Phenix Winnolin Pharmacokinetic software (Version 6.3, Certara, USA) • High speed freezing centrifuge (Thermo Fisher Scientific) • Analytical balance (Sartorius, SECURA225D-ICN) • ICR mice (Chengdu Dossy Experimental Animals CO., LTD.)
A suitable amount of drug was accurately weighed, and then the medium (5% DMSO, 15% HS-15, 80% DSW) was added to prepare the solution at a concentration of 0.1 mg/ml (i.v.) and 0.3 mg/ml (i.g.).
18 healthy adult ICR mice were divided into two groups (9 mice for i.v. group; 9 mice for i.g. group), and administered by tail vein or by gavage after fasting overnight (free drinking water); using the satellite blood collection method, 3 animals were collected at each time point, and then 0.1 ml of blood obtained at different time points was anticoagulated with EDTA-K2, centrifuged at 4° C. for 5 min to separate the plasma, and stored at −80° C. for detection. The sampling time points after i.v. administration were 5 min, 15 min, 0.5 h, 1 h, 2 h, 4 h, 8 h, 12 h, and 24 h; while the sampling time points for i.g. group were before administration (0 h) as well as 0.5 h, 1 h, 2 h, 4 h, 6 h, 8 h, 12 h, and 24 h after administration. Then, the drug concentration in plasma was determined by LC/MS/MS.

[2] = biological target: T1, androgen receptor (AR) splicing variant AR-v7 (Homo sapiens, UniProt P10275); assay: Degradation activity on androgen receptor splicing variant AR-v7 in 22RV1 cells (ELISA); type: cell-based; settings: AR-v7 degradation in 22RV1 cells, 48 h, class symbols
T1 construct: The degradation activity of compounds on AR-v7 in 22RV1 cells; host or cells: 22RV1 cells
T1 sequence (P10275 1-644 isoform P10275-3): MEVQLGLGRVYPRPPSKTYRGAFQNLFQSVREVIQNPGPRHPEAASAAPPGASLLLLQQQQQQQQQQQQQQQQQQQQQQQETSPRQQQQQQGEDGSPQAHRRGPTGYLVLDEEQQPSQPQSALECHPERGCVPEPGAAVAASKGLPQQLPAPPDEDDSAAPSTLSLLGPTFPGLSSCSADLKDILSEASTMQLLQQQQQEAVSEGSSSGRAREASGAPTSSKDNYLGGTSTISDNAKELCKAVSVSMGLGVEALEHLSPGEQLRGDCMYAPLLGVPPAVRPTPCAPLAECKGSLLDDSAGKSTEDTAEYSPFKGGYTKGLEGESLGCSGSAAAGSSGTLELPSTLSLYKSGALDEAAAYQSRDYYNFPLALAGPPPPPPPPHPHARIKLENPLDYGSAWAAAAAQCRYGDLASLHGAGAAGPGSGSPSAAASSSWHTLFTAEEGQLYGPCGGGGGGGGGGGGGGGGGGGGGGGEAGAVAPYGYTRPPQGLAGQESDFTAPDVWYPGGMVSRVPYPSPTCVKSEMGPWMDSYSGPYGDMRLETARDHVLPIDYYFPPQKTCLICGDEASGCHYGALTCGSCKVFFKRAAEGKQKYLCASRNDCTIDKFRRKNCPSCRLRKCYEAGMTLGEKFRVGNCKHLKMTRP

22RV1 cells = settings: Homo sapiens, 22Rv1, 144 h
[3] = read-out: 22RV1 IC50 (nM), 22RV1 cells, 6 days culture, CCK-8, OD 450 nm

## CC(C)(c1ccc(OCc2ccnc(N3CC4(CNC4)C3)n2)cc1)c1ccc(O[C@H]2C[C@H](Nc3ccc4c(c3)C(=O)N(C3CCC(=O)NC3=O)C4=O)C2)cc1 (stereo partly drawn) [Example 82, 5-(((1r,3r)-3-(4-(2-(4-((2-(2,6-diazaspiro[3.3]heptan-2-yl)pyrimidin-4-yl)methoxy)phenyl)propan-2-yl)phenoxy)cyclobutyl)amino)-2-(2,6-dioxopiperidin-3-yl)isoindolin-1,3-dione]
[1]
  AUC(0-inf): 100 to 1000 ng·h/mL
[2]
  DC50: 11 to 100 nM

## CC(C)(c1ccc(OCc2ccnc(N3CC4(COC4)C3)n2)cc1)c1ccc(O[C@H]2C[C@@H](Nc3cc4c(cc3F)C(=O)N(C3CCC(=O)NC3=O)C4=O)C2)cc1 (stereo partly drawn) [Example 90, 5-(((1s,3s)-3-(4-(2-(4-((2-(2-oxa-6-azaspiro[3.3]heptane-6-yl)pyrimidin-4-yl)methoxy)phenyl)propan-2-yl)phenoxy)cyclobutyl)amino)-2-(2,6-dioxopiperidin-3-yl)-6-fluoroisoindolin-1,3-dione]
[1]
  AUC(0-inf): 1000 to 5000 ng·h/mL
[2]
  DC50: 11 to 100 nM

## O=C1CCC(N2C(=O)c3ccc(N[C@H]4C[C@H](Oc5ccc(Oc6ccc(Oc7ncc(-n8nccn8)cn7)cc6)cc5)C4)cc3C2=O)C(=O)N1 (stereo partly drawn) [Example 122, 5-(((trans)-3-(4-(4-((5-(2H-1,2,3-triazol-2-yl)pyrimidin-2-yl)oxy)phenoxy)phenoxy)cyclobutyl)amino)-2-(2,6-dioxopiperidin-3-yl)isoindolin-1,3-dione]
[1]
  AUC(0-inf): 5000 to 30000 ng·h/mL
[2]
  DC50: 11 to 100 nM

## CC(C)(c1ccc(OCc2ccnc(NCC3CNC3)n2)cc1)c1ccc(O[C@H]2C[C@@H](Nc3ccc4c(c3)C(=O)N(C3CCC(=O)NC3=O)C4=O)C2)cc1 (stereo partly drawn) [Example 406]
[1]
  AUC(0-inf): 100 to 1000 ng·h/mL

## CC(=O)c1ccc(Oc2ccc(C(C)(C)c3ccc(O[C@H]4C[C@@H](Nc5ccc6c(c5)C(=O)N(C5CCC(=O)NC5=O)C6=O)C4)cc3)cc2)cn1 (stereo partly drawn) [Example 525]
[2]
  DC50: 11 to 100 nM
22RV1 cells; [3]
  IC50: 8 nM

## CCC(CC)(c1ccc(Oc2ccc(-c3noc(C)n3)nn2)cc1)c1ccc(O[C@H]2C[C@@H](Nc3ccc4c(c3)C(=O)N(C3CCC(=O)NC3=O)C4=O)C2)cc1 (stereo partly drawn) [Example 526]
[2]
  DC50: < 10 nM
22RV1 cells; read-out: 22RV1 IC50 (nM)
  IC50: 5 nM

## CCC(CC)(c1ccc(Oc2ccc(-c3noc(C)n3)nn2)cc1)c1ccc(O[C@H]2C[C@H](Nc3ccc4c(c3)C(=O)N(C3CCC(=O)NC3=O)C4=O)C2)cc1 (stereo partly drawn) [Example 527]
[2]
  DC50: < 10 nM
22RV1 cells; [3]
  IC50: 3 nM

## CC(=O)c1ncc(Oc2ccc(C3(c4ccc(O[C@H]5C[C@H](Nc6ccc7c(c6)C(=O)N(C6CCC(=O)NC6=O)C7=O)C5)cc4)CCCCC3)cc2)cn1 (stereo partly drawn) [Example 529]
[2]
  DC50: < 10 nM
22RV1 cells; [3]
  IC50: 2 nM

## CC(C)(c1ccc(OCc2cnc(N3CC4(COC4)C3)nc2)cc1)c1ccc(O[C@H]2C[C@H](Nc3ccc4c(c3)C(=O)N(C3CCC(=O)NC3=O)C4=O)C2)cc1 (stereo partly drawn) [Example 535]
[2]
  DC50: 11 to 100 nM
22RV1 cells; [3]
  IC50: 35 nM

## Cc1cncc(Oc2ccc(C(C)(C)c3ccc(O[C@H]4C[C@H](Nc5ccc6c(c5)C(=O)N(C5CCC(=O)NC5=O)C6=O)C4)cc3)cc2)n1 (stereo partly drawn) [Example 536, 2-(2,6-dioxopiperidin-3-yl)-5-(((1r,3r)-3-(4-(4-((6-methylpyrazin-2-yl)oxy)phenyl)propan-2-yl)phenoxy)amino)isoindolin-1,3-dione]
[2]
  DC50: < 10 nM
22RV1 cells; [3]
  IC50: 5 nM

## CC(C)(c1ccc(OCc2cncc(N3CC4(COC4)C3)n2)cc1)c1ccc(O[C@H]2C[C@H](Nc3ccc4c(c3)C(=O)N(C3CCC(=O)NC3=O)C4=O)C2)cc1 (stereo partly drawn) [Example 539]
[2]
  DC50: < 10 nM
22RV1 cells; [3]
  IC50: 8 nM

## CC(C)(c1ccc(Oc2cccnc2)cc1)c1ccc(O[C@H]2C[C@H](Nc3ccc4c(c3)C(=O)N(C3CCC(=O)NC3=O)C4=O)C2)cc1 (stereo partly drawn) [Example 547]
[2]
  DC50: < 10 nM
22RV1 cells; [3]
  IC50: 9 nM

## CC(C)(O)c1ncc(Oc2ccc(C(C)(C)c3ccc(O[C@H]4C[C@H](Nc5ccc6c(c5)C(=O)N(C5CCC(=O)NC5=O)C6=O)C4)cc3)cc2)cn1 (stereo partly drawn) [Example 548]
[2]
  DC50: < 10 nM
22RV1 cells; [3]
  IC50: 8 nM

## CC(C)(c1ccc(Oc2cnc(CO)nc2)cc1)c1ccc(O[C@H]2C[C@H](Nc3ccc4c(c3)C(=O)N(C3CCC(=O)NC3=O)C4=O)C2)cc1 (stereo partly drawn) [Example 549]
[2]
  DC50: < 10 nM
22RV1 cells; [3]
  IC50: 7 nM

## CNc1cnc(Oc2ccc(C(C)(C)c3ccc(O[C@H]4C[C@H](Nc5ccc6c(c5)C(=O)N(C5CCC(=O)NC5=O)C6=O)C4)cc3)cc2)cn1 (stereo partly drawn) [Example 551]
[2]
  DC50: 11 to 100 nM
22RV1 cells; [3]
  IC50: 12 nM

## CC(C)(c1ccc(OCc2ccnc(N3CC4(COC4)C3)n2)cc1)c1ccc(OCC2(Nc3ccc4c(c3)C(=O)N(C3CCC(=O)NC3=O)C4=O)CC2)cc1 (stereo not drawn) [Example 564, 5-((1-((4-(2-(4-((2-(2-oxa-6-azaspiro[3.3]heptan-6-yl)pyrimidin-4-yl)methoxy)phenyl)propan-2-yl)phenoxy)methyl)cyclopropyl)amino)-2-(2,6-dioxopiperidin-3-yl)isoindolin-1,3-dione]
[2]
  DC50: 11 to 100 nM
22RV1 cells; [3]
  IC50: 40 nM

## CC(C)(c1ccc(Oc2cc(N3CC4(COC4)C3)ncn2)cc1)c1ccc(O[C@H]2C[C@@H](Nc3ccc4c(c3)C(=O)N(C3CCC(=O)NC3=O)C4=O)C2)cc1 (stereo partly drawn) [Example 571]
[2]
  DC50: < 10 nM
22RV1 cells; [3]
  IC50: 5 nM

## CC(C)(c1ccc(Oc2ncnc(N3CC4(COC4)C3)c2F)cc1)c1ccc(O[C@H]2C[C@H](Nc3ccc4c(c3)C(=O)N(C3CCC(=O)NC3=O)C4=O)C2)cc1 (stereo partly drawn) [Example 572]
[2]
  DC50: < 10 nM
22RV1 cells; [3]
  IC50: 16 nM

## CC(C)(c1ccc(Oc2ncnc(N3CC4(COC4)C3)c2F)cc1)c1ccc(O[C@H]2C[C@@H](Nc3ccc4c(c3)C(=O)N(C3CCC(=O)NC3=O)C4=O)C2)cc1 (stereo partly drawn) [Example 574]
[2]
  DC50: < 10 nM
22RV1 cells; [3]
  IC50: 5 nM

## CC(C)(c1ccc(Oc2cc(-n3nccn3)ncn2)cc1)c1ccc(O[C@H]2C[C@H](Nc3ccc4c(c3)C(=O)N(C3CCC(=O)NC3=O)C4=O)C2)cc1 (stereo partly drawn) [Example 578]
[2]
  DC50: < 10 nM
22RV1 cells; [3]
  IC50: 8 nM

## CC(C)(c1ccc(Oc2cncc(-n3nccn3)n2)cc1)c1ccc(O[C@H]2C[C@H](Nc3ccc4c(c3)C(=O)N(C3CCC(=O)NC3=O)C4=O)C2)cc1 (stereo partly drawn) [Example 579]
[2]
  DC50: < 10 nM
22RV1 cells; [3]
  IC50: 7 nM

## CC(C)(c1ccc(Oc2cncc(-n3ccnn3)n2)cc1)c1ccc(O[C@H]2C[C@H](Nc3ccc4c(c3)C(=O)N(C3CCC(=O)NC3=O)C4=O)C2)cc1 (stereo partly drawn) [Example 580]
[2]
  DC50: < 10 nM
22RV1 cells; [3]
  IC50: 14 nM

## Cc1nc(-c2ccc(Oc3ccc(C(C)(C)c4ccc(O[C@H]5C[C@H](Nc6ccc7c(c6)C(=O)N(C6CCC(=O)NC6=O)C7=O)C5)cc4)cc3)cn2)no1 (stereo partly drawn) [Example 581]
[2]
  DC50: < 10 nM
22RV1 cells; [3]
  IC50: 10 nM

## CC(C)(c1ccc(Oc2cnc(-n3nccn3)cn2)cc1)c1ccc(O[C@H]2C[C@H](Nc3ccc4c(c3)C(=O)N(C3CCC(=O)NC3=O)C4=O)C2)cc1 (stereo partly drawn) [Example 583]
[2]
  DC50: 11 to 100 nM
22RV1 cells; [3]
  IC50: 10 nM

## Cc1nnc(-c2cnc(Oc3ccc(C(C)(C)c4ccc(O[C@H]5C[C@H](Nc6ccc7c(c6)C(=O)N(C6CCC(=O)NC6=O)C7=O)C5)cc4)cc3)cn2)o1 (stereo partly drawn) [Example 589]
[2]
  DC50: < 10 nM
22RV1 cells; [3]
  IC50: 7 nM

## CC(C)(c1ccc(Oc2nncs2)cc1)c1ccc(O[C@H]2C[C@H](Nc3ccc4c(c3)C(=O)N(C3CCC(=O)NC3=O)C4=O)C2)cc1 (stereo partly drawn) [Example 592]
[2]
  DC50: < 10 nM
22RV1 cells; [3]
  IC50: 8 nM

## CC(O)c1cnc(Oc2ccc(C(C)(C)c3ccc(O[C@H]4C[C@H](Nc5ccc6c(c5)C(=O)N(C5CCC(=O)NC5=O)C6=O)C4)cc3)cc2)cn1 (stereo partly drawn) [Example 595]
[2]
  DC50: < 10 nM
22RV1 cells; [3]
  IC50: 4 nM

## CC(=O)c1cnc(Oc2ccc(C(C)(C)c3ccc(O[C@H]4C[C@H](Nc5ccc6c(c5)C(=O)N(C5CCC(=O)NC5=O)C6=O)C4)cc3)cc2)cn1 (stereo partly drawn) [Example 596]
[2]
  DC50: < 10 nM
22RV1 cells; [3]
  IC50: 10 nM

## Cc1nc(-c2cnc(Oc3ccc(C4(c5ccc(O[C@H]6C[C@H](Nc7ccc8c(c7)C(=O)N(C7CCC(=O)NC7=O)C8=O)C6)cc5)CCCC4)cc3)cn2)no1 (stereo partly drawn) [Example 601]
[2]
  DC50: < 10 nM
22RV1 cells; [3]
  IC50: 11 nM
